Measured values: ChEMBL document CHEMBL1201862, “PubChem BioAssay data set” (2004)
Calls of active or inactive are those of the source.

Key:
[1] = target: T1, Short transient receptor potential channel 4 (Mus musculus, UniProt Q9QUQ5); assay: mouse TRPC4 channel activators, dose response, cell-based, HEK293 TRPC4/mu-opioid, Fluo-4 calcium (AID 434937); type: functional
T1 sequence (Q9QUQ5 whole entry): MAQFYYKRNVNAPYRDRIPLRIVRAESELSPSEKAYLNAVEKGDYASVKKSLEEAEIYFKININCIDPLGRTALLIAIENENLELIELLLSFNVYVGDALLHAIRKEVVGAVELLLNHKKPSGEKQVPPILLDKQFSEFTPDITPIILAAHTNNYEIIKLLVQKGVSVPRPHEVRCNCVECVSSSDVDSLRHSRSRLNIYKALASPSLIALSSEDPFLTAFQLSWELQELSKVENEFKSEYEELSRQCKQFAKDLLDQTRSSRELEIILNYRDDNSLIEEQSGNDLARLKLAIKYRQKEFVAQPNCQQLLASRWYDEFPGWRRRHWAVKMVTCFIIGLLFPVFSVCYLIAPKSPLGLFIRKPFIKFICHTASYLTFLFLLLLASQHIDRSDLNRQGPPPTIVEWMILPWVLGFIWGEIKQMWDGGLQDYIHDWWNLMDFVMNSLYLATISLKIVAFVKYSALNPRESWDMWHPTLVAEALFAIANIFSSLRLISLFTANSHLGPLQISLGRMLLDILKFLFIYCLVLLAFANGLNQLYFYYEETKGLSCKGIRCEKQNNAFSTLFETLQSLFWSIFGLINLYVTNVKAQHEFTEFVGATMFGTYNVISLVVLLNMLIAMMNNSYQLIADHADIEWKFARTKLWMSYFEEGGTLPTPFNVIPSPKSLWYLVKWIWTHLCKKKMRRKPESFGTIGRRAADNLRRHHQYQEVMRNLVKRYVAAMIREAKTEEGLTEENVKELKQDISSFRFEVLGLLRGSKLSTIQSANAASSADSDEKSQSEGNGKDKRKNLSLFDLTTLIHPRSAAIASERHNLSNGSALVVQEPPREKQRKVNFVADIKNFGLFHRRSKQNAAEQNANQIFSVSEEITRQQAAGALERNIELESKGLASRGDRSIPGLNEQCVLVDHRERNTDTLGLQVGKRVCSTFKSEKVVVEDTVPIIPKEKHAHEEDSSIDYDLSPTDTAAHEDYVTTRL

[2] = target: T2, Corticotropin-releasing factor receptor 2/Corticotropin-releasing factor-binding protein (Homo sapiens, UniProt P24387+Q13324); assay: activators of CRF receptor 2 with binding protein – uHTS hits, confirmation (AID 602473); type: functional; settings: read-out: EC50_Mean
T2 sequence (Q13324 whole entry): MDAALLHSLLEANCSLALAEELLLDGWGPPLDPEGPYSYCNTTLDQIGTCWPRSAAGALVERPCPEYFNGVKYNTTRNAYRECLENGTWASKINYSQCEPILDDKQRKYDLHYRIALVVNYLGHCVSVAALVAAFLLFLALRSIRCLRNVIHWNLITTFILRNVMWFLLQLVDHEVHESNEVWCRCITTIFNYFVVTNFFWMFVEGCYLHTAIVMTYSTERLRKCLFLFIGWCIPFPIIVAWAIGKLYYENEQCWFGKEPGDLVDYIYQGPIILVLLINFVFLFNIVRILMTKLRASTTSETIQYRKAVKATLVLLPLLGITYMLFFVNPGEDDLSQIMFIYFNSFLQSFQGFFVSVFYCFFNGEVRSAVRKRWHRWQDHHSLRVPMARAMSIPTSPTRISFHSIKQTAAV
T2 sequence (P24387 whole entry): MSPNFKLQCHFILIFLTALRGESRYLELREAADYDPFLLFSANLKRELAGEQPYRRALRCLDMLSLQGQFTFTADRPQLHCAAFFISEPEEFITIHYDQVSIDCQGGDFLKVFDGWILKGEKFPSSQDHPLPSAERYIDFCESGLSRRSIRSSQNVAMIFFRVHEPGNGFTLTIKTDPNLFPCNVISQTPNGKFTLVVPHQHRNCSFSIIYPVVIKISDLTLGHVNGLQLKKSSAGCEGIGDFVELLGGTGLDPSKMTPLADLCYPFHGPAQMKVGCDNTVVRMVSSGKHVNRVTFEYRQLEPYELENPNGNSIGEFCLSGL

[3] = tested on: Streptococcus sp. 'group A'; assay: growth inhibition of control SK(-) GAS strain, dose response, counter-screen for streptokinase expression inhibitor project, luminescence, kanamycin, BacTiterGlo, confirmation (AID 1900); type: functional, organism-based
[4] = cells; type: functional, cell-based
[5] = Counterscreen for AddAB inhibitors: absorbance-based bacterial cell-based high throughput dose response assay for inhibitors of bacterial viability. [Related pubchem assays (depositor defined):AID435030, AID449728, AID449731, AID488942, AID488955, AID488956]; type: functional
[6] = tested on: INS1; assay: beta cell apoptosis inhibitors, cytokine rescue, dose response, luminescence, retest (AID 449756); type: functional, cell-based; settings: Rattus norvegicus;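 also: cell death triggered by IL-1 beta plus TNF-alpha plus IFN-gamma mixture; protective hits raise ATP signal compared with cytokine alone wells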
[7] = THP-1 cell cytotoxicity, dose response, cytotoxicity control for non-replicating M. tuberculosis project (AID 489025); type: functional
[8] = cytotoxicity in HEK-293T cells, dose response, cytotoxicity control for TCR NF-kB inhibitor project, luminescence, T-cell screen hits (AID 489026); type: functional, cell-based;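 also: cells exposed to compound about 14 hours before the viability readout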
[9] = Luminescence-based counterscreen assay for KLF5 inhibitors: dose response cell-based high throughput screening assay to identify cytotoxic compounds using the IEC-6 intestinal epithelial cell line. [Related pubchem assays: 1700 (Primary screen.), 1834 (Confirmation screen.), 1858 (Summary AID.), 1905 (Counterscreen.)]; type: functional
[10] = target: Exodeoxyribonuclease V (Escherichia coli (strain K12), UniProt P04993+P07648+P08394); assay: E. coli RecBCD inhibitors, dose response, counter-screen for AddAB inhibitor project, absorbance, V66 E. coli, mutant T4 phage (AID 492957); type: functional, cell-based, Escherichia coli str. K-12 substr. MG1655
[11] = tested on: HEK293; assay: inhibitors of LMP1-driven NF-kB reporter, dose response, cell-based, HEK293, luciferase, cherry-pick (AID 588343); type: functional; settings: Homo sapiens
[12] = cells; type: functional, cell-based; remark: listed apart in the source
[13] = tested on: Streptococcus; assay: Group A Streptococcus viability loss, dose response, counter-screen for streptokinase expression inhibitor project, luminescence, BacTiterGlo (AID 1915); type: functional, organism-based;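 also: potency for reduction of bacterial viability or growth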
[14] = Vero E6 cell cytotoxicity, dose response, cytotoxicity control for non-replicating M. tuberculosis project, secondary assay (AID 492998); type: functional, VeroE6; settings: Vero C1008
[15] = HepG2 cell cytotoxicity, dose response, cytotoxicity control for non-replicating M. tuberculosis project (AID 489018); type: functional; settings: Mycobacterium tuberculosis
[16] = target: 26S proteasome non-ATPase regulatory subunit 14 (Homo sapiens, UniProt O00487); assay: inhibition of proteasome subunit RPN11 – biochemical, fluorescence polarization, uHTS hits, confirmation (AID 602368); type: functional
[17] = target: T3, Alkaline phosphatase, tissue-nonspecific isozyme (Homo sapiens, UniProt P05186); assay: TNAP enzyme activators, dose response, selectivity assay for mouse IAP activator project, biochemical, TNAP isozyme, mouse IAP uHTS hits (AID 488880); type: functional
T3 sequence (P05186 whole entry): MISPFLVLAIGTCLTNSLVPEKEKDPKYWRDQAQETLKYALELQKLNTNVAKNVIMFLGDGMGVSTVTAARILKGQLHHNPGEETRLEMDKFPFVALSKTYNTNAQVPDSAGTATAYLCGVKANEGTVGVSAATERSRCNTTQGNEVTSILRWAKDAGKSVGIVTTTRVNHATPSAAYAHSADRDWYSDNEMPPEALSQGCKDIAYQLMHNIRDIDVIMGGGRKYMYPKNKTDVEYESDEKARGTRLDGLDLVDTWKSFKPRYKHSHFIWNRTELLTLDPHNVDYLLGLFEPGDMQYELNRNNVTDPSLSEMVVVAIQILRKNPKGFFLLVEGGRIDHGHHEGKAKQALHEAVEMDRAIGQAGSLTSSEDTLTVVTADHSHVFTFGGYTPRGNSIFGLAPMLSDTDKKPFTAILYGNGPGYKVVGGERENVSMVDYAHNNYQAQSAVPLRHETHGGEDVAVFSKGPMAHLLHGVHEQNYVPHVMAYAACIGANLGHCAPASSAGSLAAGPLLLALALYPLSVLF

[18] = target: 72 kDa type IV collagenase (Homo sapiens, UniProt P08253); assay: Dose Response validation of uHTS RPN11 inhibitor hits using a MMP-2 Fluorescence assay.; type: functional
[19] = target: Prothrombin (Bos taurus, UniProt P00735); assay: thrombin inhibition, dose response, biochemical, fluorescence polarization, uHTS hits (AID 602369); type: functional
[20] = target: Intestinal-type alkaline phosphatase (Mus musculus, UniProt P24822); assay: mouse intestinal alkaline phosphatase activators, dose response, biochemical, luminescence, uHTS hits (AID 488783); type: functional
[21] = target: Intestinal-type alkaline phosphatase (Homo sapiens, UniProt P09923); assay: activation of human intestinal alkaline phosphatase – biochemical, dose response (AID 488873); type: functional
[22] = target: T4, Hexokinase-1 (Homo sapiens, UniProt P19367); assay: hexokinase 1 activators, dose response, selectivity assay for HKDC1 activator project, biochemical (AID 504762); type: functional
T4 sequence (P19367 whole entry): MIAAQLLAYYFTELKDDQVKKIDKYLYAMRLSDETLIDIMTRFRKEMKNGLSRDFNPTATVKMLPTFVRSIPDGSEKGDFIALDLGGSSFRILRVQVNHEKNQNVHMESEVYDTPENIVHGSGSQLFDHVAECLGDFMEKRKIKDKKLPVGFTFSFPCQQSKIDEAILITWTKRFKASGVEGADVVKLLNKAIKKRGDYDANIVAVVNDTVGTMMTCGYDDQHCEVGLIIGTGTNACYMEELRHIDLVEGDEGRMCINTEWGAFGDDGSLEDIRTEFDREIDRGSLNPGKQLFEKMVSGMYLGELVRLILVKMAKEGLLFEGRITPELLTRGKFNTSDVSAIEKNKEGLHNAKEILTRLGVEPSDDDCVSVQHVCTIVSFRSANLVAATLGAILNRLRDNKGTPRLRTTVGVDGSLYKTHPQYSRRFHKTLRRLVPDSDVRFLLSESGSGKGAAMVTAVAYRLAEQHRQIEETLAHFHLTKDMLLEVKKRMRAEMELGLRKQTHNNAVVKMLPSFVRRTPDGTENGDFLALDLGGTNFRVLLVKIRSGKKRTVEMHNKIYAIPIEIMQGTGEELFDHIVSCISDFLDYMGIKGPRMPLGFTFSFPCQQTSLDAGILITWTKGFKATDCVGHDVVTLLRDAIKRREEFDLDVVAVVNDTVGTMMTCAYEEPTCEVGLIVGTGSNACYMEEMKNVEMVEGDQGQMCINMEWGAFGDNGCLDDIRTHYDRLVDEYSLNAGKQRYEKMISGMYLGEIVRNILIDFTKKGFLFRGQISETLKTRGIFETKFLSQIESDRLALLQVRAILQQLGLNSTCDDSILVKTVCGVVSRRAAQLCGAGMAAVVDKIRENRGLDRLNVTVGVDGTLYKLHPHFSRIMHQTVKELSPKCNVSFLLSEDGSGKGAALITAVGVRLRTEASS

[23] = target: T5, Hexokinase HKDC1 (Homo sapiens, UniProt Q2TB90); assay: HKDC1 hexokinase activators, dose response, biochemical, W721R variant (AID 504730); type: functional
T5 sequence (Q2TB90 whole entry): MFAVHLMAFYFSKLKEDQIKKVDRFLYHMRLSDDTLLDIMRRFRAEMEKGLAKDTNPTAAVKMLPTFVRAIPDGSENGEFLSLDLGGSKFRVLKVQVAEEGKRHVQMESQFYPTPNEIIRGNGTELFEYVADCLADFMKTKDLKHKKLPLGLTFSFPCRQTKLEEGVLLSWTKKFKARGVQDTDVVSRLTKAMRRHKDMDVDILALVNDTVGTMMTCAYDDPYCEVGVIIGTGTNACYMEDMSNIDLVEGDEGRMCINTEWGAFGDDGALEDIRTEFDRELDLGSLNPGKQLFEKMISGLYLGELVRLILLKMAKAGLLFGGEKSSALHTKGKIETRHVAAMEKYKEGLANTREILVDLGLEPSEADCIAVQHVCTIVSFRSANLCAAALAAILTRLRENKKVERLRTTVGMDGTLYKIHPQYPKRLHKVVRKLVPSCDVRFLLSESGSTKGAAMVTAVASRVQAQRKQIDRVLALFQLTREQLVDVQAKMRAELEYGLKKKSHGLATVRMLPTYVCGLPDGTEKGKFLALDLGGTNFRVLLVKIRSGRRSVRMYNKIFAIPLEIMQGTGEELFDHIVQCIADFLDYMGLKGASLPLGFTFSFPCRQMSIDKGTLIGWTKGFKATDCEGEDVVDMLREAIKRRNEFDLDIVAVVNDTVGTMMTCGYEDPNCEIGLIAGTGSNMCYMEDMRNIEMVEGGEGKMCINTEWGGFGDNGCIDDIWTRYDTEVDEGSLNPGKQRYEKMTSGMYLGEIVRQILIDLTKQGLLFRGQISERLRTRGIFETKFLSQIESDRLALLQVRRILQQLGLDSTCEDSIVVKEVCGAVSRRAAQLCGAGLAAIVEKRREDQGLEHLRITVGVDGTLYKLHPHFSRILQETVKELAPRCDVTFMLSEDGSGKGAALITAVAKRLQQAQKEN

Chain of 26S proteasome non-ATPase regulatory subunit 14 (O00487 whole entry): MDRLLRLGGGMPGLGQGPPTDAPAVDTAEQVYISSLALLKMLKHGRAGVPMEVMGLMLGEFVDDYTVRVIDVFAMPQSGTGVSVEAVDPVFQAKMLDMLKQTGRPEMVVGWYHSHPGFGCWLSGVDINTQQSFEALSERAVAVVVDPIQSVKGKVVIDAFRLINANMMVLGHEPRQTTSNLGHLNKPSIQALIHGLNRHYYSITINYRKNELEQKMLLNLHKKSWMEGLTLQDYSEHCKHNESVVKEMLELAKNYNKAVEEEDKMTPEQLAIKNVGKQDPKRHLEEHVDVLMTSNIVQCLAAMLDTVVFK
Chain of Intestinal-type alkaline phosphatase (Homo sapiens, UniProt P09923) (P09923 whole entry): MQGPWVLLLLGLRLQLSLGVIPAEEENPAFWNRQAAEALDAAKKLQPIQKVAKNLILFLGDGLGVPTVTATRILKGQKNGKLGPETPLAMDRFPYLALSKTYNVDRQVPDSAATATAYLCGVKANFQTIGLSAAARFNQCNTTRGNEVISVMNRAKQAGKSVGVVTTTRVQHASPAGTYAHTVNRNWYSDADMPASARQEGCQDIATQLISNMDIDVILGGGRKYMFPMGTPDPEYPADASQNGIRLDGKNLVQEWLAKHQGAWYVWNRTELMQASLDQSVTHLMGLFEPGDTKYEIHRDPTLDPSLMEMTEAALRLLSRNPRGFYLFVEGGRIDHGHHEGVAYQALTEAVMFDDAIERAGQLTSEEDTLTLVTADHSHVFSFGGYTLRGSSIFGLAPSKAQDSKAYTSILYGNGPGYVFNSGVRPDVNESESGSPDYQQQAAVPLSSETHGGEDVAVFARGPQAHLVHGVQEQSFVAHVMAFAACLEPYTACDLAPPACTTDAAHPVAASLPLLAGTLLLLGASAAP
Chain of 72 kDa type IV collagenase (P08253 whole entry): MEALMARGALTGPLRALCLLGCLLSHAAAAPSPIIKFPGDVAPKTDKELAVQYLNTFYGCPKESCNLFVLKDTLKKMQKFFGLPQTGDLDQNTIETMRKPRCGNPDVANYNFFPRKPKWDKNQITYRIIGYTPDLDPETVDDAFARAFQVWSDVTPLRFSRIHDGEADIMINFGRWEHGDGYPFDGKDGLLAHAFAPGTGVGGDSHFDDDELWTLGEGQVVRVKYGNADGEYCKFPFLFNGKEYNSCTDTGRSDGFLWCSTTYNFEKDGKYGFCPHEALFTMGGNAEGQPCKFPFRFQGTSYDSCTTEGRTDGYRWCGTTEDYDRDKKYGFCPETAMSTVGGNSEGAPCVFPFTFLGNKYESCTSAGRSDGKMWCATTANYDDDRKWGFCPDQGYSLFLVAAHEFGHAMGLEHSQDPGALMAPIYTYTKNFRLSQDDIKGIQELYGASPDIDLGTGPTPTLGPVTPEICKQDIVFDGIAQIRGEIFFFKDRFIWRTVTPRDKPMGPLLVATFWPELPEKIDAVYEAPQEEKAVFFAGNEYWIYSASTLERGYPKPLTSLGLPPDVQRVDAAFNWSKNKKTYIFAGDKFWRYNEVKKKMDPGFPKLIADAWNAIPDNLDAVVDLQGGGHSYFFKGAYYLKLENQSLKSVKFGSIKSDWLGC
Chain of Exodeoxyribonuclease V (P04993 whole entry): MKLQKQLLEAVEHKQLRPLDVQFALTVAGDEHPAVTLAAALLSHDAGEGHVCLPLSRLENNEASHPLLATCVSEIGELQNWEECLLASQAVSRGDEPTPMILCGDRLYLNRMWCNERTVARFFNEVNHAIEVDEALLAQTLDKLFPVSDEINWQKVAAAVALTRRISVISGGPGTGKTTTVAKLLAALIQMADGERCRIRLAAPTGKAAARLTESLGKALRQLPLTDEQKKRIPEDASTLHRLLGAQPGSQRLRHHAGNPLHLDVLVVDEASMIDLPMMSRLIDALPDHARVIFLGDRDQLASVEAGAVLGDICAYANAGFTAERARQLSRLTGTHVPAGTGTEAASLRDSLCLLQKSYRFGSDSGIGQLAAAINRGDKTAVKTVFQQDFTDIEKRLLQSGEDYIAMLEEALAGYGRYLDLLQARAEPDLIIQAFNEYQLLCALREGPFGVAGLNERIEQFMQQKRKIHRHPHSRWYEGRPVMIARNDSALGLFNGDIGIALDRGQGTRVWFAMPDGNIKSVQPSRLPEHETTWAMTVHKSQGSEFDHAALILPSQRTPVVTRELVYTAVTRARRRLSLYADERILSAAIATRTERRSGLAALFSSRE
Chain of Exodeoxyribonuclease V (P07648 whole entry): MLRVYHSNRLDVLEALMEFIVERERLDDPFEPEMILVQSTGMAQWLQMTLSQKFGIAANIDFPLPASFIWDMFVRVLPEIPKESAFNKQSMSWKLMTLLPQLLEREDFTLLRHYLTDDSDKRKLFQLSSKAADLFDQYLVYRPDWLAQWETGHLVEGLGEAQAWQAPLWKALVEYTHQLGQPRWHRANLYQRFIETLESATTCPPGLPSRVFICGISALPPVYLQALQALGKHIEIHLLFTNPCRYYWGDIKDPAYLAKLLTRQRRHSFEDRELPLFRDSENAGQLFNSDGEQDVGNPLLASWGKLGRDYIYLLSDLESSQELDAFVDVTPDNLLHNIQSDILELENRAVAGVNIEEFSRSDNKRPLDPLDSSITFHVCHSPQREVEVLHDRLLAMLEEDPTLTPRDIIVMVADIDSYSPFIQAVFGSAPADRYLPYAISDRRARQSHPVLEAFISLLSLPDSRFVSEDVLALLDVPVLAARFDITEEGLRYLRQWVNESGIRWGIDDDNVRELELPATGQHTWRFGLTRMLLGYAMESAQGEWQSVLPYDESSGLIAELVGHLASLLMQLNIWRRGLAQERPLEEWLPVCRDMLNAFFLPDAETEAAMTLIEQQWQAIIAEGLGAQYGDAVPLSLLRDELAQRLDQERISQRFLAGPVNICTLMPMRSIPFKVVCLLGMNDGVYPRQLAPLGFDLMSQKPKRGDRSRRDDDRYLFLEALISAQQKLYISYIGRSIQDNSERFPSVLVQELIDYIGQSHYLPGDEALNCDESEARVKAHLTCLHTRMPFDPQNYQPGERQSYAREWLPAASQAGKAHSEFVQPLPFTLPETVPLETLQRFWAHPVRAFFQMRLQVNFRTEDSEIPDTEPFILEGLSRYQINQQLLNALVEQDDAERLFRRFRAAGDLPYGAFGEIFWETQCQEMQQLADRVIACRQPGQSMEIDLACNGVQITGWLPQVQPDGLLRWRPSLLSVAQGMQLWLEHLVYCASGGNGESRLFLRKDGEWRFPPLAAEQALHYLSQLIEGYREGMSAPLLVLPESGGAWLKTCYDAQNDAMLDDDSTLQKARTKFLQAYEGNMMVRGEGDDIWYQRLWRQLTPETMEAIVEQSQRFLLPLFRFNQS
Chain of Exodeoxyribonuclease V (P08394 whole entry): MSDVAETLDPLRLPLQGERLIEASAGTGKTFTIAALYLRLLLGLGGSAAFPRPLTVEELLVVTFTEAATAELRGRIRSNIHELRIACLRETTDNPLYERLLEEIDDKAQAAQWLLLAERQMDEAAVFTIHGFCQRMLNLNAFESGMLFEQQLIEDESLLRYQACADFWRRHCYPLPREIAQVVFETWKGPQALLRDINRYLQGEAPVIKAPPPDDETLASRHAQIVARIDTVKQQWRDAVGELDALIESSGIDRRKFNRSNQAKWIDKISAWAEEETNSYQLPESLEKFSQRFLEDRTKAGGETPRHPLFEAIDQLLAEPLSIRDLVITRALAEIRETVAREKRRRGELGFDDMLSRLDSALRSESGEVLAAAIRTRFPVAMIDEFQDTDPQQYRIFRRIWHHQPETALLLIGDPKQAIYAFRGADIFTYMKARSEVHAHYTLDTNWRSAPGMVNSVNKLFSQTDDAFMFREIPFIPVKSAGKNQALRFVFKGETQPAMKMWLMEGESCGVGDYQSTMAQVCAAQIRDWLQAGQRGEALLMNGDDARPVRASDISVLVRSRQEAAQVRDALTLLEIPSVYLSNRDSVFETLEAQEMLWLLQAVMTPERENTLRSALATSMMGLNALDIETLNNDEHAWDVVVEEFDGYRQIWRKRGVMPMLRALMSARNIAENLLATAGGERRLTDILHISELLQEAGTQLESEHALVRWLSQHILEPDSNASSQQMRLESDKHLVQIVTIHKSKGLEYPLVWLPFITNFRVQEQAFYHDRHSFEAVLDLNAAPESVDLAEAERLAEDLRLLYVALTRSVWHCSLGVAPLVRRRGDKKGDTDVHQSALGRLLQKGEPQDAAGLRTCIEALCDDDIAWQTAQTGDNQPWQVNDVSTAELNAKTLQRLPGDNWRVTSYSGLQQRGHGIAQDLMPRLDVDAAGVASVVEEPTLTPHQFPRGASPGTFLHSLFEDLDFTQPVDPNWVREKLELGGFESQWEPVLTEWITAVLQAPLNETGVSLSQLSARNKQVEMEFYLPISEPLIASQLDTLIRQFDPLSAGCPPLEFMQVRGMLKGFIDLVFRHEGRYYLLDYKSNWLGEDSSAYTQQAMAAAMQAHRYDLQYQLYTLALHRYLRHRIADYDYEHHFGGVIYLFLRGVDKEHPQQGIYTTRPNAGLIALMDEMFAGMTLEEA
Chain of Intestinal-type alkaline phosphatase (Mus musculus, UniProt P24822) (P24822 whole entry): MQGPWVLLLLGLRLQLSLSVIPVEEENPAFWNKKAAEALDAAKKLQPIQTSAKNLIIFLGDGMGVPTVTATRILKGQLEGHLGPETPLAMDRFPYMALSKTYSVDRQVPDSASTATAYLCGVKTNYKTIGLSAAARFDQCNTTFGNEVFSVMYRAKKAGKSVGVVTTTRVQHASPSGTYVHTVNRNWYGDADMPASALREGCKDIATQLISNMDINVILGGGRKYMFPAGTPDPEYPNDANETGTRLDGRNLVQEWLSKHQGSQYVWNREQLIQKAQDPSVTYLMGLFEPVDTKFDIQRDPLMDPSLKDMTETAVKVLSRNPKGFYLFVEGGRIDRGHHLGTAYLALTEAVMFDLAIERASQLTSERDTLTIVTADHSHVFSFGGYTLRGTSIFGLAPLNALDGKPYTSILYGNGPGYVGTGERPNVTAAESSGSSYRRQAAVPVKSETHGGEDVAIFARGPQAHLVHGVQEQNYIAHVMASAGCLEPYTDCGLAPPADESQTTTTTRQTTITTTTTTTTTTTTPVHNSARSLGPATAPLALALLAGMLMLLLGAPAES

CCC1(c2ccc(F)cc2)NC(=O)N(CC(=O)c2cc(C)n(C3CC3)c2C)C1=O (stereo not drawn)
EC50 [1]: 5.96 µM (active) | EC50 [2]: 4.88 µM (active)

O=C(N/N=C/c1c(O)ccc2ccccc12)c1ccc(Br)o1
EC50 [3]: 0.982 µM (active) | EC50 [4]: > 350 µM (not active) | IC50 [5]: > 119 µM (inactive) | AC50 [6]: 0.779 µM (active) | CC50 [7]: 0.493 µM (active) | IC50 [8]: > 80 µM (inactive) | IC50 [9]: 9.35 µM (active) | IC50 [10]: > 119 µM (inactive) | AC50 [11]: 6.22 µM (active) | EC50 [12]: 37.3 µM (active) | EC50 [13]: 2.83 µM (active) | CC50 [14]: 2.71 µM (active) | CC50 [15]: 5.73 µM (active)

CN(CCO)c1ccc(C=NNc2ccc([N+](=O)[O-])cc2S(=O)(=O)Nc2ccccc2C(=O)O)cc1
IC50 [16]: 37 µM (active) | EC50 [17]: 19.7 µM (active) | IC50 [18]: > 100 µM (inactive) | IC50 [19]: 36.4 µM (active) | EC50 [20]: 17.5 µM (active) | EC50 [21]: 26.6 µM (active)

COC(=O)Cn1c2ccc(F)cc2c2nc(C)sc21
EC50 [22]: 8.1 µM (active) | EC50 [23]: 8.74 µM (active)
